These results are taken from patent US20240217947A1, “Morpholinylquinazoline Compound, Pharmaceutical compositions thereof and Use Thereof” (SHANGHAI YINGLI PHARMACEUTICAL CO., LTD, priority 2022, published 2024).

What all share (format): biochemical
The target in test [1] is PI3Kα (Homo sapiens, UniProt P42336). The test is described as follows: PI3Kα enzyme activity inhibition IC50 evaluation assay (ADP-Glo Kinase Assay). The note with it: ATP 25 μM, PIP2 50 μg/mL, 1 hour room temperature, read-out: PI3K-α IC50. The procedure: (§1) Effec Example 1 IC50 evaluation assay for PI3Kα, PI3Kδ, PI3Kβ and PI3Kγ enzyme activity inhibition
(§2) The experiment was performed using the ADP-Glo Kinase Assay kit, following the instructions. The following buffer solutions were prepared: 50 mM HEPES, pH 7.5, 3 mM MgCl2, 1 mM EGTA, 100 mM NaCl, 0.03% CHAPS, 2 mM DTT. The test compound samples were dissolved in DMSO and added to the screening system at a certain starting concentration such as 10 μM, 3-fold dilution, while setting up both DMSO control and no kinase control. The optimal concentrations of PI3Kα, PI3Kδ, PI3Kβ and PI3Kγ enzymes, substrate (PIP2) and ATP were prepared in buffer. The enzyme reaction system included: buffer, ATP 25 μM, kinase substrate (PIP2, 50 μg/mL), kinases [PI3Kα (0.15 μg/mL), PI3Kδ (1.2 μg/mL), PI3Kβ (0.3 μg/mL) and PI3Kγ (2.5 μg/mL)], etc. The reaction system was reacted at room temperature for 1 hour. The reaction was terminated by adding a termination reagent (ADP-Glo reagent, 5 μL), and the ADP content in the system was detected using a detection reagent (Kinase Detection Reagent, 10 μL). Signal data were collected using the Envision instrument. Calculate the percentage of (%) inhibition according to the following formula: % inhibition=(DMSO control signal value−sample signal value)/(DMSO control signal value−no-kinase control signal value). The IC50 value was obtained by fitting the curve using the formula Y=Bottom+(Top-Bottom)/(1+(IC50/X)^HillSlope).

Test [2] deals with PI3Kδ (Homo sapiens, UniProt O00329). The test is described as follows: PI3Kδ enzyme activity inhibition IC50 evaluation assay (ADP-Glo Kinase Assay). The note with it: ATP 25 μM, PIP2 50 μg/mL, 1 hour room temperature, read-out: PI3K-δ IC50. The procedure:
as §1, §2

Test [3] has as its target T1, HDAC6 (Homo sapiens, UniProt Q9UBN7).
T1 sequence (Q9UBN7 1-1215): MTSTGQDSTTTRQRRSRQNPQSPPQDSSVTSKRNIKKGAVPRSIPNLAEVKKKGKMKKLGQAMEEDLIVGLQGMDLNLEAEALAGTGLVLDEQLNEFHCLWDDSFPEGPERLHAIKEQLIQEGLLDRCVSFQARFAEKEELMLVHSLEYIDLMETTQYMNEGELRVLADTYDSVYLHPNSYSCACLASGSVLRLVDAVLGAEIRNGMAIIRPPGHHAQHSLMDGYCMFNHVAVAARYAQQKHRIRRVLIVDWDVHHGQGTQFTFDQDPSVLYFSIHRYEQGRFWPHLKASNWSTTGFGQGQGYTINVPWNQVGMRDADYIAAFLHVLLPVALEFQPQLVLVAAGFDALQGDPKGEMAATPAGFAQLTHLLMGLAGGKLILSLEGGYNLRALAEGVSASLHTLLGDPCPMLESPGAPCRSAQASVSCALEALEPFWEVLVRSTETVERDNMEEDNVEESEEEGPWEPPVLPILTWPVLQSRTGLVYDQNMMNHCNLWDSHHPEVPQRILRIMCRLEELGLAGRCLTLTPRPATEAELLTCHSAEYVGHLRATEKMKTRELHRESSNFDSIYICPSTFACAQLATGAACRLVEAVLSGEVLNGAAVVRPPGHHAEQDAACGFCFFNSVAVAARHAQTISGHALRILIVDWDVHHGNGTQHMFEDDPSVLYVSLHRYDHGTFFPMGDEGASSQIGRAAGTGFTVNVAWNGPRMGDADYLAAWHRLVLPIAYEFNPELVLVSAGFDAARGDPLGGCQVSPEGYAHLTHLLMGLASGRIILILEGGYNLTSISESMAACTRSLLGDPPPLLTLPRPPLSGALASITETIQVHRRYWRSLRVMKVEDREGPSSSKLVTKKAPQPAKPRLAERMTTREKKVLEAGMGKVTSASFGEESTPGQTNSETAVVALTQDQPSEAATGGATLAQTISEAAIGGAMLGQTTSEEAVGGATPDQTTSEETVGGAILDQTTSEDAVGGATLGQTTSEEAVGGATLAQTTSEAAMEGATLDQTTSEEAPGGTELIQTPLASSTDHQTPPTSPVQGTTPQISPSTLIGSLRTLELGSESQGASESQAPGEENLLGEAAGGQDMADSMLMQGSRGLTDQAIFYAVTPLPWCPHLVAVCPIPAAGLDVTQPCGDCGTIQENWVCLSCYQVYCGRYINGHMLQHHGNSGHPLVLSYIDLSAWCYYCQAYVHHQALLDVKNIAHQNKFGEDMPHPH
In words: HDAC6 enzyme activity inhibition IC50 evaluation experiment. The note with it: HDAC6 5 nM, acetylated peptide 11 μM, trypsin, fluorescence. The procedure: Effect Example 2 HDAC1, HDAC2, HDAC3, HDAC6 enzyme activity inhibition IC50 evaluation experiment
Buffer solution (50 mM Tris 7.5, 0.01% Tween-20, 50 mM NaCl) was prepared according to the kit instructions, and the enzyme solution and substrate solution (acetylated peptide with the addition of trypsin) were prepared using the buffer solution. The test compound samples were dissolved with DMSO and added to the screening system at a certain starting concentration such as 10 μM, 3-fold dilution, while setting up a DMSO control and no-enzyme control. The enzyme reaction system includes: buffer, enzyme [final concentration: HDAC1=10 nM, HDAC2=4 nM, HDAC3=7 nM, HDAC6=5 nM], substrate (acetylated peptide) [final concentration: Peptide(HDAC1)=8 μM, Peptide(HDAC2)=10 μM, Peptide(HDAC3)=5 μM, Peptide(HDAC6)=11 μM], trypsin [final concentration: Trypsin(HDAC1,2,3)=0.05 μM, Trypsin(HDAC6)=0.1 μM], etc. The enzymes and compounds were reacted at room temperature for 15 min. After adding the substrate and Trypsin, centrifugation was performed for 1 min, and the fluorescence signal data (excitation wavelength 355 nM/emission wavelength 460 nm) was read continuously for 60 min using Envision, and the linear reaction segment was selected to obtain the slope and thus calculate the inhibition rate at that concentration. The IC50 value was obtained by fitting the curve using the formula Y=Bottom+(Top-Bottom)/(1+(IC50/X)^HillSlope).

PI3Kδ, sequence (O00329 whole entry, species assumed): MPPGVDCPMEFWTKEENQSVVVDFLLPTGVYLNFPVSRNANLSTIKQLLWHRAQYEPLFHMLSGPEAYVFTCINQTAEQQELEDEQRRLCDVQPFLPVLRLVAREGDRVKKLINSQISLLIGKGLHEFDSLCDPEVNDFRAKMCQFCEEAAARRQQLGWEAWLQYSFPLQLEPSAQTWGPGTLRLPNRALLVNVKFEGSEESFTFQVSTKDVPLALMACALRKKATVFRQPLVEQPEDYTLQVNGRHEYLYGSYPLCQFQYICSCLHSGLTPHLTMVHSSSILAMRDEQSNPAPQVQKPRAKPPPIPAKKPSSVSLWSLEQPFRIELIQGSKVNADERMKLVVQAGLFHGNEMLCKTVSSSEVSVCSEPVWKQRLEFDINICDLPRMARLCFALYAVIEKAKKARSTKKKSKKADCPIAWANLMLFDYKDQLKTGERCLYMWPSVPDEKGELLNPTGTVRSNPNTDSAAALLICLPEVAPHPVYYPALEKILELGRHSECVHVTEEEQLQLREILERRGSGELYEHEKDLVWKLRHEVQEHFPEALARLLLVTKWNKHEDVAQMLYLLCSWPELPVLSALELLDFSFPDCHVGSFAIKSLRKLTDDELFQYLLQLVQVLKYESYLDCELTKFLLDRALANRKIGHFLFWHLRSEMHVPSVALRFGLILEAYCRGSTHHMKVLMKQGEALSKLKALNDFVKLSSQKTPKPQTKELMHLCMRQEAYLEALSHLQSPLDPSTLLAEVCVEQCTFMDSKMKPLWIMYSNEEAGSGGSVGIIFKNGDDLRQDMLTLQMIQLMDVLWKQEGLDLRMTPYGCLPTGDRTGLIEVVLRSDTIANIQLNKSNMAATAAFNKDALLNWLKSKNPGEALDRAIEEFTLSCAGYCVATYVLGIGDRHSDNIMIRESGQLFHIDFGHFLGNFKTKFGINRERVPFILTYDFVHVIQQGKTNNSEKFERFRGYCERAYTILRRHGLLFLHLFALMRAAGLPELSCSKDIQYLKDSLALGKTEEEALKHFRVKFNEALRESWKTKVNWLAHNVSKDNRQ
PI3Kδ, sequence (P27986 whole entry partner, species assumed): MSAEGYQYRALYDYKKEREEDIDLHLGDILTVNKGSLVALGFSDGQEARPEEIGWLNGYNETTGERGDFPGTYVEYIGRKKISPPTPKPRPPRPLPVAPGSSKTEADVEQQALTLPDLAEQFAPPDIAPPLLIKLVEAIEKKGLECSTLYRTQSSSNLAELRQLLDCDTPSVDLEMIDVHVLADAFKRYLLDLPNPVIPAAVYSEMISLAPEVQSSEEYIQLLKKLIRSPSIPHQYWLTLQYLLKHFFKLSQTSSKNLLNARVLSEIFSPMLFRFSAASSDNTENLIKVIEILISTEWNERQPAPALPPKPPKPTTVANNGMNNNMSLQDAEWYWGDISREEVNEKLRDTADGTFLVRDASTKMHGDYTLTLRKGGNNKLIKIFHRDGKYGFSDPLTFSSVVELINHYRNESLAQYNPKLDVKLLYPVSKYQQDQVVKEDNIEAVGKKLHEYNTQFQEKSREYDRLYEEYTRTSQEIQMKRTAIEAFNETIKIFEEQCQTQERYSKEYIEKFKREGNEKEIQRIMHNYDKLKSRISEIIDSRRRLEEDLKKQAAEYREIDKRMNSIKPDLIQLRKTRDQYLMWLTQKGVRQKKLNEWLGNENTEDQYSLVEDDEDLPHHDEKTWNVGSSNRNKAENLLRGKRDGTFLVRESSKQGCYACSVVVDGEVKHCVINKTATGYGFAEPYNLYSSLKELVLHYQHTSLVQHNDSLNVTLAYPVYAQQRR
PI3Kα, sequence (P42336 whole entry, species assumed): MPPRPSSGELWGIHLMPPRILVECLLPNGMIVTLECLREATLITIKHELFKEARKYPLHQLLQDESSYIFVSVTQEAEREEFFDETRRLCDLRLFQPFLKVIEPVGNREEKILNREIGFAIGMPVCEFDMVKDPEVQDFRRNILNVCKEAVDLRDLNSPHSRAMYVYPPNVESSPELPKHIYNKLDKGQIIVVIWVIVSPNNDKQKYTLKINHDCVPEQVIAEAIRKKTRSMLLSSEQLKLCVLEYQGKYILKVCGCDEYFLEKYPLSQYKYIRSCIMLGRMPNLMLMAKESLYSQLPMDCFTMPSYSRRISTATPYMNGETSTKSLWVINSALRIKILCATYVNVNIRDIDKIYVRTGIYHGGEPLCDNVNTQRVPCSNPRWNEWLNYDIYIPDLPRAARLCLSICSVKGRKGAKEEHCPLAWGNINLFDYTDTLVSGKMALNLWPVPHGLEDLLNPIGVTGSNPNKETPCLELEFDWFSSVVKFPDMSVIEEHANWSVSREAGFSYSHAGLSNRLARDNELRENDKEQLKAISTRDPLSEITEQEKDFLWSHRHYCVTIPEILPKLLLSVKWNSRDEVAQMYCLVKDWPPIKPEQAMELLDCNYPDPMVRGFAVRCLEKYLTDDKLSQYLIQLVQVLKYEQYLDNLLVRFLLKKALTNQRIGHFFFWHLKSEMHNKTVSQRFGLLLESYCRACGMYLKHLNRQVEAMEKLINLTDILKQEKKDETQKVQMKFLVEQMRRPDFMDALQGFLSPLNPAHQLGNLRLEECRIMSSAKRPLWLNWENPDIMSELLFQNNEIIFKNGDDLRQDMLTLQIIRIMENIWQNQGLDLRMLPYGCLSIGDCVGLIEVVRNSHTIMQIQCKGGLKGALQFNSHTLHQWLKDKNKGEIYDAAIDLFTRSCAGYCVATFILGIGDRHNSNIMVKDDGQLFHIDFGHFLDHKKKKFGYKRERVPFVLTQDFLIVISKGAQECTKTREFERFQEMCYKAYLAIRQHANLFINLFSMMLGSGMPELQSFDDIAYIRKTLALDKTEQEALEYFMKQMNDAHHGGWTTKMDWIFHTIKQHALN
PI3Kα, sequence (P27986 whole entry partner, species assumed): as the sequence (P27986 whole entry partner, species assumed) above

Consider `COc1ncc(-c2nc(N3CCOCC3)nc3c(CN4CCC(c5ccc(C(=O)NO)c(F)c5)CC4)cc(F)cc23)cc1NS(C)(=O)=O` [Compound 18], for which the IC50 in test [1] is 1000 to 10000 nM; in test [2], at most 10 nM; in test [3], 100 to 1000 nM.

As to `COc1ncc(-c2nc(N3CCOCC3)nc3c(CN4CCN(Cc5ncc(C(=O)NO)cn5)CC4)cc(F)cc23)cc1NS(C)(=O)=O` [Compound 12], the IC50 was 100 to 1000 nM in test [1], at most 10 nM in test [2] and 100 to 1000 nM in test [3].

For `COc1ncc(-c2nc(N3CCOCC3)nc3c(OCCc4ccc(C(=O)NO)cc4F)cc(F)cc23)cc1NS(C)(=O)=O` [Compound 37], in test [2], the half-inhibitory concentration (IC50) lay within 100 to 1000 nM.

As for `COc1ncc(-c2nc(N3CCOCC3)nc3c(CN4CCC(CCNC(=O)NO)CC4)cc(F)cc23)cc1NS(C)(=O)=O` [Compound 28], the IC50 in test [1] was 100 to 1000 nM; in test [2], at most 10 nM; in test [3], over 10000 nM.

For the compound `COc1ncc(-c2nc(N3CCOCC3)nc3c(CN4CCC(c5cc(F)c(C(=O)NO)cc5F)CC4)cc(F)cc23)cc1NS(C)(=O)=O` [Compound 20], the figures for the IC50 in test [1], in test [2] and in test [3] were 1000 to 10000 nM, at most 10 nM and 100 to 1000 nM, respectively.

For `O=C(CCCC1CCN(Cc2cc(F)cc3c(-c4cncc(NS(=O)(=O)C5CC5)c4)nc(N4CCOCC4)nc23)CC1)NO` [Compound 27], the results for the IC50 in test [1] and in test [2] were 1000 to 10000 nM and 10 to 100 nM, respectively.

As to `COc1ncc(-c2nc(N3CCOCC3)nc3c(CN4CCC(C(C)(C)OCC(=O)NO)CC4)cc(F)cc23)cc1NS(C)(=O)=O` [Compound 22], the figures for the IC50 in test [1], in test [2] and in test [3] were 100 to 1000 nM, at most 10 nM and 1000 to 10000 nM, respectively.

For `COc1ncc(-c2nc(N3CCOCC3)nc3c(CN4CCC(OCCCC(=O)NO)CC4)cc(F)cc23)cc1NS(C)(=O)=O` [Compound 13], the IC50 in test [1] is 1000 to 10000 nM; in test [2], at most 10 nM; in test [3] it was 100 to 1000 nM.

As for `COc1ncc(-c2nc(N3CCOCC3)nc3c(CN4CCC(c5ccc(C(=O)NO)cc5F)CC4)cc(F)cc23)cc1NS(C)(=O)=O` [Compound 17], the IC50 in test [1] is 1000 to 10000 nM; in test [2], at most 10 nM; in test [3], 10 to 100 nM.

Regarding `COc1ncc(-c2nc(N3CCOCC3)nc3c(OCCCCCC(=O)NO)cc(F)cc23)cc1NS(C)(=O)=O` [Compound 8], the IC50 in test [1] was 100 to 1000 nM; in test [2] it was 10 to 100 nM; in test [3], at most 10 nM.

Turning to `COc1ncc(-c2nc(N3CCOCC3)nc3c(CN4CCN(CCCCC(=O)NO)CC4)cc(F)cc23)cc1NS(C)(=O)=O` [Compound 6], the IC50 was at most 10 nM in test [2] and 100 to 1000 nM in test [3].

As for `COc1ncc(-c2nc(N3CCOCC3)nc3c(CN4CCC(CCCC(=O)NO)CC4)cc(F)cc23)cc1NS(=O)(=O)C(F)(F)F` [Compound 26], the IC50 in test [1] is 100 to 1000 nM; in test [2] it was at most 10 nM; in test [3] it was 10 to 100 nM.

Regarding `COc1ncc(-c2nc(N3CCOCC3)nc3c(CN4CCC(CCCC(=O)NO)CC4)cc(F)cc23)cc1NS(=O)(=O)C1CC1` [Compound 25], the IC50 was in the range of 1000 to 10000 nM in test [1], 10 to 100 nM in test [2] and 10 to 100 nM in test [3].

As for `COc1ncc(-c2nc(N3CCOCC3)nc3c(CN4CCN(c5ccc(C(=O)NO)cc5F)CC4)cc(F)cc23)cc1NS(C)(=O)=O` [Compound 34], the IC50 in test [2] and in test [3] was 10 to 100 nM in each case.

On to `COc1ncc(-c2nc(N3CCOCC3)nc3c(O[C@H]4CC[C@H](N5CCC(C(=O)NO)CC5)CC4)cc(F)cc23)cc1NS(C)(=O)=O` [Compound 32], for which the IC50 in test [2] is at most 10 nM; in test [3], 1000 to 10000 nM.

Take `COc1ncc(-c2nc(N3CCOCC3)nc3c(CN4CCC(/C=C/C(=O)NO)CC4)cc(F)cc23)cc1NS(C)(=O)=O` [Compound 5]: the results for the IC50 in test [2] and in test [3] were at most 10 nM and 100 to 1000 nM, respectively.

As for `COc1ncc(-c2nc(N3CCOCC3)nc3c(CN4CCC(c5ccc(C(=O)NO)cc5F)CC4)cc(F)cc23)cc1NS(=O)(=O)C(F)(F)F` [Compound 29], the IC50 is 100 to 1000 nM in test [1] and at most 10 nM in test [2].

In the case of `COc1ncc(-c2nc(N3CCOCC3)nc3c(CN4CCC(c5c(F)cc(C(=O)NO)cc5F)CC4)cc(F)cc23)cc1NS(C)(=O)=O` [Compound 19], the IC50 in test [1] was 1000 to 10000 nM; in test [2], at most 10 nM; in test [3] it was 100 to 1000 nM.

Turning to `COc1ncc(-c2nc(N3CCOCC3)nc3c(OC4CCN(c5ccc(C(=O)NO)cc5F)CC4)cc(F)cc23)cc1NS(C)(=O)=O` [Compound 31], the IC50 in test [2] and in test [3] was 10 to 100 nM throughout.

For the compound `COc1ncc(-c2nc(N3CCOCC3)nc3c(OC4CCN(Cc5ccc(C(=O)NO)cc5F)CC4)cc(F)cc23)cc1NS(C)(=O)=O` [Compound 33], the IC50 in test [2] and in test [3] was 10 to 100 nM each time.

In the case of `COc1ncc(-c2nc(N3CCOCC3)nc3c(CN4CCC(CCCCC(=O)NO)CC4)cc(F)cc23)cc1NS(C)(=O)=O` [Compound 15], the IC50 in test [1] was 100 to 1000 nM; in test [2], at most 10 nM; in test [3], 100 to 1000 nM.

Regarding `CS(=O)(=O)Nc1cncc(-c2nc(N3CCOCC3)nc3c(CN4CCC(CCCC(=O)NO)CC4)cc(F)cc23)c1` [Compound 24], the results for the IC50 in test [1], in test [2] and in test [3] were 1000 to 10000 nM, 10 to 100 nM and 10 to 100 nM, respectively.

Regarding `COc1ncc(-c2nc(N3CCOCC3)nc3c(CN4CCN(Cc5ccc(C(=O)NO)cc5)CC4)cc(F)cc23)cc1NS(C)(=O)=O` [Compound 10], the IC50 is 100 to 1000 nM in test [1], at most 10 nM in test [2] and 10 to 100 nM in test [3].

With `COc1ncc(-c2nc(N3CCOCC3)nc3c(CN4CCC(c5ccc(C(=O)NO)cc5)CC4)cc(F)cc23)cc1NS(C)(=O)=O` [Compound 23], the IC50 in test [1] was 100 to 1000 nM; in test [2] it was at most 10 nM; in test [3], 10 to 100 nM.

With `COc1ncc(-c2nc(N3CCOCC3)nc3c(OCc4ccc(C(=O)NO)cc4F)cc(F)cc23)cc1NS(C)(=O)=O` [Compound 38], in test [2], the IC50 lay within 10 to 100 nM.
